From patent publication US20180171288A1, “METHODS OF TREATING CANCER” (THE UNIVERSITY OF ROCHESTER, priority 2016, published 2018)
Values joined by “and” are separate entries in the source; they are usually repeats but may differ in a detail not shown here. Equal entries are not always repeated. “Also recorded” adds a separate entry of the source. Where two headings read alike, the source gives them in different places. Values belong to the compound of their own block, whether it stands above or below them.

Experiments:
[1] = test system: OPCs isolated from the developing human central nervous system; test: Sensitivity of human OPCs to anticancer agents; type: cell-based
From the text: This is a particularly difficult problem to solve in the context of cells of the central nervous system, as many of these cells are inherently more sensitive to anticancer agents than are cancer cells themselves. Previous studies have shown that one of the cell types of the brain that is most sensitive to the adverse effects of multiple chemotherapeutic agents are the oligodendrocyte progenitor cells (OPCs) that give rise to the myelin-forming oligodendrocytes of the central nervous system.

human TMXR MCF7 cells = test: TMXR MCF7 mammary fat pad xenograft in NSG mice; conditions: mouse, in vivo
[2] = test system: complex between c-Cbl and Cool-1/βpix; conditions: TMX-resistant luminal breast cancer cells
GBM cells [3] = test: Sensitivity of GBM cells to TMX / cell killing; type: cell-based, human
From the text: The cell lines studied represent a range of glioblastoma subtypes and genotypes and generate human glioblastomas when transplanted into the CNS of immune-deficient mice.

[4] = test system: tamoxifen-resistant luminal breast cancer cells
melanoma cells = test: Sensitivity of melanoma cells to TMX; type: cell-based
[5] = test system: complex between c-Cbl and Cool-1/βpix; test: Complex between c-Cbl and Cool-1/βpix in GBM cells (immunoprecipitation, immunoblot); type: cell-based, human
c-Cbl = c-Cbl phosphorylation in GBM cells; type: cell-based, human
Protocol: In this approach, cancer cells are treated with a CRA or a DCLTD in the presence or absence of an agent that causes cells to become more oxidized. The status of c-Cbl phosphorylation may be analyzed by any of a number of means well-known to those skilled in the art, including Western blot analysis of cell lysates with an antibody that identifies phosphorylated c-Cbl, for instance at tyrosine residues Y731 or Y771, analysis of cell labeling with such antibodies which may be conjugated with a fluorescent probe that makes them suitable for analysis by fluorescence microscopy, immunohistochemistry or by automated fluorescence analysis of some form, or by CYTOF mass cytometry analysis. The change in phosphorylation status is compared with that seen in untreated cells, in cells treated with the CRA or DCLTD by itself, or that treated with a pro-oxidant by itself.
An example of the ability of DCLTDs to restore the ability of TMX to enhance phosphorylation of c-Cbl via the redox/Fyn/c-Cbl pathway is shown in FIG. 8. […] As predicted if activation was RFC pathway-mediated, such activation was inhibited by N-acetyl-L-cysteine (NAC, a glutathione pro-drug and anti-oxidant), thus confirming that TMX-induced activation of c-Cbl was dependent on the pro-oxidative activities of TMX.

TMXR MCF-7 cells = test: Growth and killing of TMXR MCF-7 cells in vitro; type: cell-based, human; conditions: for vulnerability / resistance of TMXR MCF-7 cells to 4^OH-CPP: 3 μM MPT, 5 μM TMX, 5 μM 4^OH-CPP
Cool-1/βpix = Cool-1/βpix Serine340 phosphorylation (antibody blot / immunostaining); type: cell-based, human; conditions: anti-phospho-Cool1/βpix antibody
GBM cells [6] = test: Protein levels of direct and indirect c-Cbl targets in GBM cells; type: cell-based, human
Protocol: Alternatively, restoration of c-Cbl function can be determined by analysis of changes in the levels of direct targets of c-Cbl, with changes in the levels of two or more c-Cbl targets caused by the application of a single therapeutic intervention being an indicator of c-Cbl activation. In such analyses, cells are treated with saline, with the CRA or DCLTD by itself, with a pro-oxidant or with the combination of a CRA or a DCLTD with a pro-oxidant. The ability of treatment with the combined agents to cause greater decreases in the levels of proteins that are direct targets of c-Cbl provides a surrogate indicator of c-Cbl activation.
Six of the 10 compounds remaining were chosen to determine whether they restored the ability of oxidation of cells to cause decreases in levels of a c-Cbl target, an outcome that occurs when c-Cbl is activated via the redox/Fyn/c-Cbl pathway. These compounds indeed restored the ability of pro-oxidative stimulation to cause decreases in the levels of the epidermal growth factor receptor (EGFR), which is a c-Cbl target known to be important in growth of many cancer cells and that is of interest as a potential target in cancer treatment.
There are two groups of such proteins, ones in which the connection to a c-Cbl target can be reasonably surmised based on prior research and ones for which the linkage to c-Cbl is currently unknown. Non-limiting examples of the first category of outcomes are activities of Erk1/2 and Akt, which both are downstream of receptor tyrosine kinases that are targets of c-Cbl. Further non-limiting examples are activity levels of NF-κB and serum response element (SRE), which are activated downstream of Akt and […], respectively.

GBM TICs = test: Tumor generation by GBM cells treated in vitro and transplanted intra-cranially in NSG mice; type: in vivo; conditions: cells exposed 72 hrs in vitro, four GBM cell lines
From the text: After treatment, 500,000 live cells were transplanted intra-cranially in NSG mice. […] In contrast with the effects of MPT+TMX in TICs, treatment with temozolomide (TMZ, the frontline treatment for glioblastoma), had no apparent effects on TICs (FIG. 12D).
Unexpectedly, in light of the partial reduction in levels of Cool-1/βpix, and the similarly partial reduction in levels of proteins important in TIC biology, treatment with DCLTD-based therapies eliminates TICs. […] After treatment, 500,000 live cells were transplanted intra-cranially in NSG mice. […] Thus, treatment with temozolomide had little apparent effect on TIC elimination, in agreement with patient data indicating rapid recurrence of tumor even during the period of temozolomide treatment.
Exposure of GBM cells to the combination of MPT+TMX led to the apparently complete elimination of GBM cancer stem cells. GBM cells from four different cell lines were exposed to MPT+TMX combination for 72 hrs in vitro, after which 500,000 live cells were transplanted intra-cranially in NSG mice.

parental MCF-7 cells = type: cell-based, human
human GBM cells = test: Established intracranial human GBM xenografts in NSG mice (cohorts together)
hGBM27 = test: Intracranial xenograft, hGBM27; type: in vivo, NSG mice
hGBM10 = test: Intracranial xenograft, hGBM10; type: in vivo, NSG mice
MDA-MB-231 cells = test: Sensitivity of MDA-MB-231 BLBC cells to TMX; type: cell-based
From the text: Sertraline and mefloquine both were identified in screens on MDA-MB-231 BLBC cells, in which c-Cbl is inhibited in a Cdc42-dependent manner.

tumor growth = conditions: in combination with TMX; cited from earlier work

Compound: OCCNC1CCCc2c1[nH]c1ccc(-c3ccccc3)cc21 (stereo not shown) [CASIN]
sensitivity of OPCs to TMX [1]: does not increase the vulnerability of OPCs to TMX

Compound: O=P1(N(CCCl)CCCl)NCCCO1 (stereo not shown) [CPP, cyclophosphamide]
tumor growth (human TMXR MCF7 cells): already have initiated tumor growth midway through treatment

sensitivity of OPCs to TMX [1]: did not increase the sensitivity
Compound: CNCCCC12CCC(c3ccccc31)c1ccccc12 [MPT, maprotiline]
levels of the complex between c-Cbl and Cool-1/βpix [2]: causes a decrease in levels of the complex
sensitivity of GBM cells to TMX (GBM cells [3]): enhanced the sensitivity of GBM cells; also recorded: increase in tamoxifen sensitivity
tamoxifen sensitivity of tamoxifen-resistant luminal breast cancer cells [4]: increase in tamoxifen sensitivity
sensitivity of melanoma cells to TMX (melanoma cells): increased the sensitivity of melanoma cells to TMX
levels of the complex between c-Cbl and Cool-1/βpix [5]: virtually complete elimination of complexes; also recorded: marked reductions in levels of the complex
c-Cbl phosphorylation (c-Cbl): enabled TMX-induced c-Cbl phosphorylation
vulnerability / resistance of TMXR MCF-7 cells to 4^OH-CPP (TMXR MCF-7 cells): only slightly increased vulnerability to 4^OH-CPP
Cool-1/βpix phosphorylation on Serine340 (Cool-1/βpix): decreases the level of staining; also recorded: causes a decrease in levels of Cool-1/βpix phosphorylation
sensitivity of OPCs to temozolomide [1]: does not increase the sensitivity of OPCs to temozolomide
levels of Cool-1/βpix (GBM cells [6]): decreases levels of the inhibitory protein Cool-1/βpix
levels of the c-Cbl targets EGFR, Notch-1, β-catenin and PDGFRα (GBM cells [6]): decreases were less marked

Compound: CC/C(=C(\c1ccccc1)c1ccc(OCCN(C)C)cc1)c1ccccc1 [TMX, tamoxifen]
tumor generation after transplant of 500,000 live treated cells (GBM TICs): generated tumors within three weeks
c-Cbl phosphorylation (c-Cbl): alone was not sufficient to activate c-Cbl
cell division in the presence of TMX (TMXR MCF-7 cells; 1 μM TMX, TMXR cells): continue to divide
vulnerability / resistance of TMXR MCF-7 cells to 4^OH-CPP (TMXR MCF-7 cells): only slightly increased vulnerability to 4^OH-CPP
effect on cell division and survival (parental MCF-7 cells): cytostatic but not lethal
levels of FoxM1, Sox2, HSF-1 and HSP70 (GBM cells [6]): does not have the above effects

Compound: Cn1nnc2c(C(N)=O)ncn2c1=O [TMZ, temozolomide]
increase in lifespan over saline-treated mice (human GBM cells; median 9 week survival of saline-treated mice): 30%
time lived after treatment was stopped (human GBM cells; mouse, in vivo): 4-5 weeks and 2-6 weeks
week of treatment in which tumor size began to increase (hGBM27; hGBM27): 4 week
increase in tumor size (photon flux) at 12 weeks (hGBM27; hGBM27, 3 weeks after cessation of treatment): > 5000 fold
increase in tumor size (photon flux) at the end of 9 weeks of treatment (hGBM27; hGBM27, oral gavage 5 days on/2 days off): > 100 fold
median survival (hGBM27; hGBM27 cohort): 11.5 weeks
increase in tumor size at 12 weeks (hGBM10; hGBM10): > 500 fold and 500 fold
median survival (hGBM10; hGBM10 cohort): 12 weeks

Compound: CN(C)CCC=C1c2ccccc2CCc2ccccc21 [amitryptiline]
sensitivity of GBM cells to TMX (GBM cells [3]): none of them were as effective as MPT

Compound: CNCCC(Oc1ccc(C(F)(F)F)cc1)c1ccccc1 (stereo not shown) [fluoxetine]
sensitivity of GBM cells to TMX (GBM cells [3]): none of them were as effective as MPT

Compound: Cc1cccc(CN2CCN(C(c3ccccc3)c3ccc(Cl)cc3)CC2)c1 (stereo not shown) [meclizine]
sensitivity of GBM cells to TMX (GBM cells [3]): increased the vulnerabilty of GBM cells to TMX

Compound: OC(c1cc(C(F)(F)F)nc2c(C(F)(F)F)cccc12)C1CCCCN1 (stereo not shown) [mefloquine]
sensitivity of melanoma cells to TMX (melanoma cells): increased the sensitivity of melanoma cells to TMX

Compound: CN[C@H]1CC[C@@H](c2ccc(Cl)c(Cl)c2)c2ccccc21 [sertraline]
sensitivity of MDA-MB-231 BLBC cells to TMX (MDA-MB-231 cells): increased the sensitivity of these cells to TMX; also recorded: increase in tamoxifen sensitivity
sensitivity of OPCs to TMX [1]: does not increase sensitivity of OPCs to TMX

Compound: C=C(NC(=O)C(=C)NC(=O)c1csc(C2=N[C@@H]3c4csc(n4)[C@H]4NC(=O)c5csc(n5)[C@H]([C@](C)(O)[C@@H](C)O)NC(=O)[C@H]5CSC(=N5)/C(=C/C)NC(=O)[C@H]([C@@H](C)O)NC(=O)c5csc(n5)[C@]3(CC2)NC(=O)[C@H](C)NC(=O)C(=C)NC(=O)[C@H](C)NC(=O)[C@H]([C@@H](C)CC)N[C@@H]2C=Cc3c([C@H](C)O)cc(nc3[C@H]2O)C(=O)O[C@@H]4C)n1)C(N)=O [thiostrepton]
sensitivity of GBM cells to TMX (GBM cells [3]): does not increase sensitivity to TMX as potently as does MPT
c-Cbl phosphorylation (c-Cbl): not associated with a notable increase in c-Cbl phosphorylation

Compound: ML141
suppression of tumor growth (tumor growth): only provided partial suppression of tumor growth
